Results taken from paper PMC7933434, “Entropy-driven binding of gut bacterial β-glucuronidase inhibitors ameliorates irinotecan-induced toxicity” (Communications Biology, 2021).
Values joined by “and” are separate entries in the source; they are usually repeats but may differ in a detail not shown here. Equal entries are not always repeated.

How the values were obtained:
HsGUS (human GUS) = target: T1, HsGUS (human GUS) (Homo sapiens, UniProt P08236); experiment: GUS inhibition assay, hydrolysis of 4-methylumbelliferyl-β-glucuronide, HsGUS; type: biochemical; parameters: GUS activity (hydrolysis rate of MUG): unit not given here
T1 construct: HsGUS was prepared as described[37]; made in house
T1 sequence (P08236 23-651): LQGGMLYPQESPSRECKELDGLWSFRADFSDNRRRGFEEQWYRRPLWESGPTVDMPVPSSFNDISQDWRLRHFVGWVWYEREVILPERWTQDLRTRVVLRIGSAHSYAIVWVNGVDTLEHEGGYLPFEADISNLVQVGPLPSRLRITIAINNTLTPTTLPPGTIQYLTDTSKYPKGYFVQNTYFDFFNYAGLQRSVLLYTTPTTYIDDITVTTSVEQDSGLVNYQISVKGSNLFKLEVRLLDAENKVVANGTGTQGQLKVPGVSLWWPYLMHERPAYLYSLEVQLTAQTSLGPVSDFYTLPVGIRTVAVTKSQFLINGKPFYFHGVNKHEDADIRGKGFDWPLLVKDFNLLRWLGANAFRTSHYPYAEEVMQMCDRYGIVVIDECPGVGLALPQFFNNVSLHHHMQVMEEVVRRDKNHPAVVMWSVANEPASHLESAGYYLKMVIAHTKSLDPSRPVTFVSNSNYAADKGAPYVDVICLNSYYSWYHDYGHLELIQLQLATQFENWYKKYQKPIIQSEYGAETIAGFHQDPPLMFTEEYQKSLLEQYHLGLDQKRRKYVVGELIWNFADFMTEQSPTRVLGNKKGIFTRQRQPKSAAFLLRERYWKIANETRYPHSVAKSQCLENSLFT

[1] = target: T2, GUS activity in live E. coli cells (Escherichia coli, UniProt P05804); experiment: GUS activity in live E. coli cells; type: cell-based; details: E. coli cells (OD600 = 1.89) treated for 30 min, then GUS activity measured
T2 construct: endogenous in cells
Experimental: To examine if inhibitors 2–4 could inhibit GUS activity in vivo, E. coli cells (OD600 = 1.89) were treated with each of 2–4 for 30 min, after which GUS activity was measured. […]; 3, 18.6 nM; and 4, 3.69 nM (Supplementary Fig. 9a). […]. […] Additionally, to evaluate cell viability, E. coli cultures were treated with ampicillin (positive control), DMSO, or inhibitors 2–4 (100 μM) for 6 h.
Supplementary Figure 9 Inhibitors 2–4 sho w in hi biti on ag ai n st G US acti vity in l i ve E. co li cell s. (a) GUS activity was measured in live E. coli. Af t e r E. coli were incubated with DMSO or an inhibitor ( 2–4), GUS activity was measured using 4-methylumbelliferyl-β-glucuronide as the substrate. The release of fluorescent 4-methylumbelliferone was detected at 445 nm (excitation, 345 nm). Compared with the negative c ont rol (DMSO ), […]
[…]. (b) Colony formation assay. None of the inhibitors affected bacterial growth. As a negative control, E. coli cells were incubated with ampicillin (100 μg/mL). Results are expressed as the mean of triplicate samples ± SEM.
(1 picture or pasted object on this page, not shown here)

[2] = target: EcGUS (Escherichia coli GUS) (Escherichia coli, UniProt P05804); experiment: biochemical
BdGUS = BdGUS (Bifidobacterium dentium, UniProt D2Q7B1); experiment: biochemical; type: binding; details: BdGUS; Tris buffer (250 mM NaCl, 20 mM Tris, pH 8.0); 298 K
Sequence of BdGUS (D2Q7B1 entry or part of it): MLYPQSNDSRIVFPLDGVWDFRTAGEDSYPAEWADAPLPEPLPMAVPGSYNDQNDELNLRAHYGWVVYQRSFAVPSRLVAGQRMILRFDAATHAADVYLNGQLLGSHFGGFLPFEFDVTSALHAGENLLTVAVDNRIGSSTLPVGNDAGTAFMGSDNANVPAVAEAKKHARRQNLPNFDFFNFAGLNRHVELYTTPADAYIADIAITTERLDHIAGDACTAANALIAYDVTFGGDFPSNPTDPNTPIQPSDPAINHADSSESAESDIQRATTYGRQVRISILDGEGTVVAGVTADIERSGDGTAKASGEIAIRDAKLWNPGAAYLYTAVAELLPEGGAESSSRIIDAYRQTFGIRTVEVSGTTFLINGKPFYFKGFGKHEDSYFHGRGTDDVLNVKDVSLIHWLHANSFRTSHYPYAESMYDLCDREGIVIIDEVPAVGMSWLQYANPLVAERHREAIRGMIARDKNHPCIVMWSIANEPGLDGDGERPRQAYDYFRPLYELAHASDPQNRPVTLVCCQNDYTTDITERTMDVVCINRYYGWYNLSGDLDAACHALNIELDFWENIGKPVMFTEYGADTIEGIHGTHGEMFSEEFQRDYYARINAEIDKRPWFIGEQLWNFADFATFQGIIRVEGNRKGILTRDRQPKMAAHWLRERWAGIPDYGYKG

Sequence of EcGUS (Escherichia coli GUS) (P05804 whole entry): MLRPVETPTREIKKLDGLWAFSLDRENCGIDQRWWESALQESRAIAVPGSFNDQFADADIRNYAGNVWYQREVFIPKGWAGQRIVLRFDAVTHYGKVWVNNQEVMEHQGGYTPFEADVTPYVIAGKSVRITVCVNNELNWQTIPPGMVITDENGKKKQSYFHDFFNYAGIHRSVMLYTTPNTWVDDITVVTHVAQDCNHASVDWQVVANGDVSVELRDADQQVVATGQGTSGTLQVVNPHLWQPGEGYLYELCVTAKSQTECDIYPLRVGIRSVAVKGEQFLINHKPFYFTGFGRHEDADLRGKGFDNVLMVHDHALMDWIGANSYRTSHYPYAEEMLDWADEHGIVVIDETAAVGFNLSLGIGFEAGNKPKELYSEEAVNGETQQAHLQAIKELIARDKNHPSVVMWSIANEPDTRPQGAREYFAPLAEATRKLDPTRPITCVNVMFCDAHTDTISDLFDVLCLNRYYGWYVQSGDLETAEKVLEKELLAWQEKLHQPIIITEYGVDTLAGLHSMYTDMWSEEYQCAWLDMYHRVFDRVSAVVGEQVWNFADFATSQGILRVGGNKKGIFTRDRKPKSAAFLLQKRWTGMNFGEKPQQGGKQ
T2 sequence (P05804 whole entry): as above

`CCCCCC[C@@H]1NC[C@@H](O)[C@H](O)[C@H]1C(=O)O` [Inhibitor 3, C6-hexyl UIFG] was tested, and the “GUS activity (hydrolysis rate of MUG)” value (HsGUS (human GUS); [Inhibitor 3] =0.3125 μM, [MUG] 0.2 mM) was 1433.02 and 1411.42, the “GUS activity (hydrolysis rate of MUG)” value (HsGUS (human GUS); [Inhibitor 3] =0.3125 μM, [MUG] 0.4 mM) was 2271.61 and 2263.8 and the “GUS activity (hydrolysis rate of MUG)” value (HsGUS (human GUS); [Inhibitor 3] =0.3125 μM, [MUG] 0.6 mM) was 2953.53 and 2923.55. The “GUS activity (hydrolysis rate of MUG)” value (HsGUS (human GUS); [Inhibitor 3] =0.3125 μM, [MUG] 0.8 mM) was 3510.33 and 3469.47, the “GUS activity (hydrolysis rate of MUG)” value (HsGUS (human GUS); [Inhibitor 3] =0.3125 μM, [MUG] 1.2 mM) was 4268.51 and 4308.7 and the “GUS activity (hydrolysis rate of MUG)” value (HsGUS (human GUS); [Inhibitor 3] =0.3125 μM, [MUG] 1.6 mM) was 4927.41 and 4670.47. The “GUS activity (hydrolysis rate of MUG)” value (HsGUS (human GUS); [Inhibitor 3] =0.3125 μM, [MUG] 2 mM) was 5186.78 and 5296.26, the “GUS activity (hydrolysis rate of MUG)” value (HsGUS (human GUS); [Inhibitor 3] =0.625 μM, [MUG] 0.1 mM) was 778.258 and 858.783 and the “GUS activity (hydrolysis rate of MUG)” value (HsGUS (human GUS); [Inhibitor 3] =0.625 μM, [MUG] 0.2 mM) was 1379.09 and 1422.22. For the same compound, the “GUS activity (hydrolysis rate of MUG)” value (HsGUS (human GUS); [Inhibitor 3] =0.625 μM, [MUG] 0.4 mM) was 2137.64 and 2310.12, the “GUS activity (hydrolysis rate of MUG)” value (HsGUS (human GUS); [Inhibitor 3] =0.625 μM, [MUG] 0.6 mM) was 2842.46 and 2976.65 and the “GUS activity (hydrolysis rate of MUG)” value (HsGUS (human GUS); [Inhibitor 3] =0.625 μM, [MUG] 0.8 mM) was 3348.75 and 3351.68. For the same compound, the “GUS activity (hydrolysis rate of MUG)” value (HsGUS (human GUS); [Inhibitor 3] =0.625 μM, [MUG] 1.2 mM) was 4293.66 and 3890.63, the “GUS activity (hydrolysis rate of MUG)” value (HsGUS (human GUS); [Inhibitor 3] =0.625 μM, [MUG] 1.6 mM) was 4573.95 and 4600.88 and the “GUS activity (hydrolysis rate of MUG)” value (HsGUS (human GUS); [Inhibitor 3] =0.625 μM, [MUG] 2 mM) was 5372.6 and 4990.92. For the same compound, the “GUS activity (hydrolysis rate of MUG)” value (HsGUS (human GUS); [Inhibitor 3] =1.25 μM, [MUG] 0.1 mM) was 717.04 and 716.519, the “GUS activity (hydrolysis rate of MUG)” value (HsGUS (human GUS); [Inhibitor 3] =1.25 μM, [MUG] 0.2 mM) was 1240.56 and 1222.88 and the “GUS activity (hydrolysis rate of MUG)” value (HsGUS (human GUS); [Inhibitor 3] =1.25 μM, [MUG] 0.4 mM) was 2023.29 and 2076.53. For the same compound, the “GUS activity (hydrolysis rate of MUG)” value (HsGUS (human GUS); [Inhibitor 3] =1.25 μM, [MUG] 0.6 mM) was 2757.57 and 2739.69, the “GUS activity (hydrolysis rate of MUG)” value (HsGUS (human GUS); [Inhibitor 3] =1.25 μM, [MUG] 0.8 mM) was 3062.28 and 3123.61 and the “GUS activity (hydrolysis rate of MUG)” value (HsGUS (human GUS); [Inhibitor 3] =1.25 μM, [MUG] 1.2 mM) was 3822.55 and 3852.43. For the same compound, the “GUS activity (hydrolysis rate of MUG)” value (HsGUS (human GUS); [Inhibitor 3] =1.25 μM, [MUG] 1.6 mM) was 4324.26 and 4371.34, the “GUS activity (hydrolysis rate of MUG)” value (HsGUS (human GUS); [Inhibitor 3] =1.25 μM, [MUG] 2 mM) was 5149.01 and 5020.2 and the “GUS activity (hydrolysis rate of MUG)” value (HsGUS (human GUS); [Inhibitor 3] =2.5 μM, [MUG] 0.1 mM) was 605.275 and 587.992. The “GUS activity (hydrolysis rate of MUG)” value (HsGUS (human GUS); [Inhibitor 3] =2.5 μM, [MUG] 0.2 mM) was 1017.03 and 1026.81, the “GUS activity (hydrolysis rate of MUG)” value (HsGUS (human GUS); [Inhibitor 3] =2.5 μM, [MUG] 0.4 mM) was 1798.51 and 1698.98 and the “GUS activity (hydrolysis rate of MUG)” value (HsGUS (human GUS); [Inhibitor 3] =2.5 μM, [MUG] 0.6 mM) was 2384.66 and 2417.17. The “GUS activity (hydrolysis rate of MUG)” value (HsGUS (human GUS); [Inhibitor 3] =2.5 μM, [MUG] 0.8 mM) was 2879.78 and 2802.26, the “GUS activity (hydrolysis rate of MUG)” value (HsGUS (human GUS); [Inhibitor 3] =2.5 μM, [MUG] 1.2 mM) was 3545.79 and 3649.82 and the “GUS activity (hydrolysis rate of MUG)” value (HsGUS (human GUS); [Inhibitor 3] =2.5 μM, [MUG] 1.6 mM) was 4144.07 and 4075.98. For the same compound, the “GUS activity (hydrolysis rate of MUG)” value (HsGUS (human GUS); [Inhibitor 3] =2.5 μM, [MUG] 2 mM) was 4744.38 and 4849.33, the “GUS activity (hydrolysis rate of MUG)” value (HsGUS (human GUS); [Inhibitor 3] =3.75 μM, [MUG] 0.1 mM) was 572.514 and 563.082 and the “GUS activity (hydrolysis rate of MUG)” value (HsGUS (human GUS); [Inhibitor 3] =3.75 μM, [MUG] 0.2 mM) was 956.564 and 935.374. For the same compound, the “GUS activity (hydrolysis rate of MUG)” value (HsGUS (human GUS); [Inhibitor 3] =3.75 μM, [MUG] 0.4 mM) was 1708.56 and 1611.49, the “GUS activity (hydrolysis rate of MUG)” value (HsGUS (human GUS); [Inhibitor 3] =3.75 μM, [MUG] 0.6 mM) was 2310.6 and 2247.59 and the “GUS activity (hydrolysis rate of MUG)” value (HsGUS (human GUS); [Inhibitor 3] =3.75 μM, [MUG] 0.8 mM) was 2878.65 and 2643.42. The “GUS activity (hydrolysis rate of MUG)” value (HsGUS (human GUS); [Inhibitor 3] =3.75 μM, [MUG] 1.2 mM) was 3484.96 and 3524, the “GUS activity (hydrolysis rate of MUG)” value (HsGUS (human GUS); [Inhibitor 3] =3.75 μM, [MUG] 1.6 mM) was 3945.8 and 4134.14 and the “GUS activity (hydrolysis rate of MUG)” value (HsGUS (human GUS); [Inhibitor 3] =3.75 μM, [MUG] 2 mM) was 4453.48 and 4566.78. The IC50 [1] was 18.6 nM, the Ki ([2]; 50 mM HEPES pH 7.5, 37 °C) was 0.003 ± 0.0006 µM and the Ki ([2]; source data of Table 1, from plot of apparent Km against [inhibitor] (μM)) was 0.00316 µM. For the same compound, the ΔH (BdGUS) was “Essentially no enthalpy change was evident”.
